Legend:
Keap1 C77S = target: T1, Keap1 C77S (Homo sapiens, UniProt Q14145, C77S); assay: ITC titration of PBA with Keap1-C77S; assay type: binding; details: 25 ℃
T1 construct: His (N); made in house; host or cells: E. coli BL21 (DE3)
Procedure: (§1) The Keap1 was amplified by PCR using a human cDNA library, and was subcloned into the vector pET28-TEV, which contained one tobacco etch virus (TEV) protease cleavage site at the upstream multiple cloning site. The protein was expressed in E. coli BL21 (DE3) cells and incubated at 37 °C until the OD600 value reached 0.6, using 0.2 mM isopropyl β-D-1-thiogalactopyranoside (IPTG) overnight induction at 18 °C. The cells were isolated by centrifugation, resuspended in ice-cold lysis buffer and lysed by cryogenic overpressure cell breaker at 1,200 psi. The lysates were centrifuged for 60 min at 14,000 rpm to obtain the supernatant. Gravity flow purification of Keap1 protein was obtained at room temperature using 1 mL of Ni-NTA and eluted in buffer containing 250 mM imidazole, followed by 1 mL of HiTrap QHP for the second step purification. The final protein was purified and validated by Superdex 200 10/300GL resin.
(§2) The mutant plasmid DNA was obtained by PCR. The PCR products were cleaved by DpnI restriction enzymes. The restriction endonuclease-cleaved mixture was subsequently transformed into E. coli DH5α. Colonies were evaluated by colony PCR and sequenced. The mutant plasmid was transformed into E. coli BL21 (DE3) after successful sequencing. The steps for expression and purification of all recombinants were described above.
(§3) Isothermal calorimetry (ITC) titration experiments were performed at 25 °C. WT Keap1, Keap1 mutants and PBA were dissolved in binding buffer (40 mM Tris-HCl pH 8.0, 250 mM NaCl). In a typical experiment, 60 μL of PBA (1 mM) was injected 19 times at 2-min intervals from a stirring syringe into the sample cell containing 300 μL of WT protein or mutants (30 μM). The first injection was 0.4 μL of PBA, and the subsequent 18 injections were 2 μL each time. The site-binding models were determined by using MicroCal Origin software.

Keap1 C434S = target: T2, Keap1 C434S (Homo sapiens, UniProt Q14145, C434S); assay: ITC titration of PBA with Keap1-C434S; assay type: binding; details: 25 ℃
T2 construct: His (N); made in house; host or cells: E. coli BL21 (DE3)
Procedure: as §1, §2, §3

[1] = test system: OGD/R-induced primary mouse cardiomyocytes; assay: OGD/R-induced injury, MTT viability, primary cardiomyocytes; assay type: cell-based; details: 10 and 30 μM, OGD 3 h, reperfusion 18 h
Procedure: The heart was removed from the neonatal C57BL/6 mice and cut into 1 mm^3 pieces in ice […] buffer. The tissues were digested with the mixture of 0.125% trypsin (Gibco, 15090-046) and 0.1% type II collagenase (Gibco, 17101-015) 6 min at 37 °C for three times until the tissues were completely digested. The cells were harvested and seeded in a dish. After 90 min of incubation, the cell culture medium was collected and centrifuged. The centrifuged cardiomyocytes were harvested, seeded on 0.1 % gelatin-coated culture plates with DMEM containing 10% FBS and […] Brdu, and incubated in a 37°C incubator.
Cell viability was determined by MTT assays. PBA was prepared to a stock solution dissolved in dimethyl sulfoxide (DMSO). RAW264.7, H9c2 cells, primary mouse cardiomyocytes were treated with different doses of PBA, and DMSO only as control for 48 h for the toxicity. In addition, H9c2 cells or primary mouse cardiomyocytes were treated with the indicated doses of PBA, diazoxide as positive control, DMSO only as control, then cultured with or without OGD/R treatment. At the end of the experiments, MTT was added into each well at the concentration of 0.5 mg/ml, and incubated at 37 °C for 4 h. […] And the solution was measured at the absorbance of 490 nm by a spectrophotometer (Thermo Fisher Scientific, MA, USA). […]

[2] = test system: recombinant Keap1 mutant proteins; assay: Pull-down of recombinant Keap1 mutants with PBA-Sepharose 4B; assay type: binding, human; details: cysteine to serine mutants
Procedure: PBA-Sepharose 4B beads were created by dissolving PBA in coupling buffer (100 mM NaHCO3, pH 8.3, 0.5 M NaCl). After washing with 1 mM HCl medium, Sepharose 4B beads were mixed with PBA coupling buffer and slowly rotated overnight at 4 °C. Excess PBA was washed away with coupling buffer and any remaining active groups were blocked with 0.1 M Tris-HCl buffer (pH 8.0) for 2 h. The medium was then washed with 0.1 M acetate buffer (pH 4.0) containing 0.5 M NaCl followed by a wash with 0.1 M Tris-HCl (pH 8.0) that also contained 0.5 M NaCl. PBA-Sepharose 4B beads were ready for use in the pull-down assay. The RAW264.7 cellular supernatant fraction (600 µg) was incubated with either PBA-Sepharose 4B or Sepharose 4B as a negative control in reaction buffer (50 mM Tris-HCl, pH 7.5, 5 mM EDTA, 150 mM NaCl, 1 mM DTT, 0.01% NP-40, 2 µg/mL of BSA, 0.02 mM PMSF, 1 × protease inhibitor cocktail). After incubation with gentle rocking overnight at 4 °C, the beads were washed five times with wash buffer (50 mM Tris-HCl, pH 7.5, 5 mM EDTA, 150 mM NaCl, 1 mM DTT, 0.01% NP-40, 0.02 mM PMSF) and proteins bound to the beads were analyzed by immunoblotting assay with a Keap1 antibody.
The mutant plasmid DNA was obtained by PCR. The PCR products were cleaved by DpnI restriction enzymes. […] Colonies were evaluated by colony PCR and sequenced. […]

T2 sequence (Q14145 whole entry C434S): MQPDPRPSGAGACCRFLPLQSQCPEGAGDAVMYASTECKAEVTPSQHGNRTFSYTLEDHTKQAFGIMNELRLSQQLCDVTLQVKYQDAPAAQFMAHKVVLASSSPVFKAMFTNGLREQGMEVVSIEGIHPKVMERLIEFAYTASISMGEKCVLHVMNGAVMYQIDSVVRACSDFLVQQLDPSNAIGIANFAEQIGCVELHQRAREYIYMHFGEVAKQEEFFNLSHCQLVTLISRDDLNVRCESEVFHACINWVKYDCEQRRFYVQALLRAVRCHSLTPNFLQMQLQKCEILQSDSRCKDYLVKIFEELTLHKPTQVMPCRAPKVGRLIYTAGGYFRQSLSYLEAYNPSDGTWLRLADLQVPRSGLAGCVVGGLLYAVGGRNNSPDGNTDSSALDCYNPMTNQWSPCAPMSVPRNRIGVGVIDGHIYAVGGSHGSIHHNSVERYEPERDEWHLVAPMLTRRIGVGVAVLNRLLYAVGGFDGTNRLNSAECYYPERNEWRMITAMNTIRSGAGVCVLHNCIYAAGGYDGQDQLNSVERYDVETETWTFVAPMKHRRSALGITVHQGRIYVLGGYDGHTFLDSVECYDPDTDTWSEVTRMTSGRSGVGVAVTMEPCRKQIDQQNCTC
T1 sequence (Q14145 whole entry C77S): as the sequence (Q14145 whole entry C434S) above, with C77S, S434C counted along it

In the case of `C=C(COC(=O)C=Cc1ccc(O)c(O)c1)C(O)COC1OC(CO)C(O)C(O)C1O` (centres unmarked) [PBA, pubescenoside A], the Kd (Keap1 C77S) is reported as 19.5 µM, the “T△S” value (Keap1 C77S) is reported as 0.78 ± 0.00 kcal/mol and the “△G” value (Keap1 C77S) is reported as -6.43 ± 0.00 kcal/mol. The “△H” value (Keap1 C77S) was -5.65 ± 0.866 kcal/mol, the Kd (Keap1 C434S) was 13.9 µM and the “T△S” value (Keap1 C434S) was 1.87 ± 0.00 kcal/mol. The “△G” value (Keap1 C434S) was -6.63 ± 0.00 kcal/mol, the “△H” value (Keap1 C434S) was -4.76 ± 0.367 kcal/mol and the “protection against OGD/R induced injury (cell viability, MTT)” value [1] was “protected”. The “binding of Keap1 mutants of Cys434, Cys77, Cys23 and Cys38 (pull-down)” value [2] was “lost the capacity to bind” and the “binding of other Keap1 mutants (pull-down)” value [2] was “retained their high binding affinity”.
